Measurements taken from patent US3959272A, “Aminoalkyl esters of 2-anilino-nicotinic acids” (Societe Anonyme dite: Hexachime, priority 1972, dated 1976).

Legend:
Solubility in water = type: physicochemical; details: monohydrochloride
[1] = Antagonism of convulsions produced by cardiazole; type: in vivo; details: Mus musculus, ip, read-out: Percentage inhibition of tonic convulsions
Procedure: Groups of 6 mice received the compound under test 30 minutes before introperitoneal injection of 160 mg/kg of cardiazole. The action of the compound under test on the tonic convulsion phase was observed.

Escape test = type: in vivo; details: Mus musculus, ip, 0.5 h, read-out: Percentage inhibition (number of attempts to escape)
Procedure: Groups of 8 mice were placed in sub groups of 4 in an enclosure from which they could escape by an inclined plane. The number of attempts to escape during 5 minutes were counted half an hour after intraperitoneal administration of the compound under test.

[2] = Anti-inflammatory activity: oedema provoked by carragenin in the rat; type: in vivo; details: po, read-out: percentage inhibition of oedema
Procedure: The method used was as follows.
The anti-inflammatory activity was measured on oedema provoked by carragenin in the rat. Groups of six male rats each weighing 120 to 130 g received the compound under test orally in suspension in "tween 80", half the dose being given 2 hours before and the other half 1/2 hour before the subcutaneous plantar injection of 0.05 ml of a 1 % carragenin solution. The volume of the injected paw was measured by plethysmography at regular intervals. Table 1 below gives the percentage inhibition of the oedema with reference to untreated controls.

[3] = Analgesic activity: Randall and Selitto's test (beer yeast paw, pain threshold); type: in vivo, rat
Procedure: This activity was measured by Siegmund's test in mice and Randall and Selitto's test in the rat. Groups of ten male rats each weight 120 to 140 g received by subcutaneous plantar injection 0.05 ml of a 5% aqueous suspension of beer yeast. 2 Hours after this treatment they received the compound under test orally and 1 hour after administration of this compound the paw which had been injected and the contralateral paw were subjected to increasing pressure. The appearance of the pain threshold was noted.

[4] = Analgesic activity: Siegmund's test (phenylbenzoquinone painful reactions); type: in vivo; details: Mus musculus, po, read-out: percentage inhibition of reactions
Procedure: This activity was measured by Siegmund's test in mice and Randall and Selitto's test in the rat.
Groups of six mice received the compound under test orally 1 hour before intraperitoneal injection of 0.2 ml of an 0.02% of solution of phenylbenzoquinone. The number of painful reactiors from the fifth to the tenth minute after the injection of phenylbenzoquinone was counted.

Cc1cccc(Nc2ncccc2C(=O)OCC(C)(C)N(C)C)c1C [Example 3, 2-Dimethylamino-2-methylpropyl nixylate]
solubility in water (Solubility in water): soluble in water | inhibition in vivo at 8 mg/kg ([1]; 8 mg/kg intraperitoneally): 0% | inhibition in vivo at 16 mg/kg ([1]; 16 mg/kg intraperitoneally): 5% | inhibition in vivo at 32 mg/kg ([1]; 32 mg/kg intraperitoneally): 16% | inhibition in vivo at 64 mg/kg ([1]; 64 mg/kg intraperitoneally): 83% | inhibition in vivo at 128 mg/kg ([1]; 128 mg/kg intraperitoneally): 100% | change in vivo at 8 mg/kg (Escape test; 8 mg/kg intraperitoneally): -16% | change in vivo at 16 mg/kg (Escape test; 16 mg/kg intraperitoneally): -15% | change in vivo at 32 mg/kg (Escape test; 32 mg/kg intraperitoneally): -30% | change in vivo at 64 mg/kg (Escape test; 64 mg/kg intraperitoneally): -67% | change in vivo at 128 mg/kg (Escape test; 128 mg/kg intraperitoneally): -95% | inhibition in vivo at 128 mg/kg ([2]; 128 mg/kg orally): 0% | inhibition in vivo at 256 mg/kg ([2]; 256 mg/kg orally): 72% | inhibition in vivo at 512 mg/kg ([2]; 512 mg/kg orally): 67% | percentage increase of pain threshold ([3]; with yeast, 16 mg/kg orally): 33% | percentage increase of pain threshold ([3]; with yeast, 32 mg/kg orally): 42% | percentage increase of pain threshold ([3]; with yeast, 64 mg/kg orally): 66% | percentage increase of pain threshold ([3]; with yeast, 128 mg/kg orally): 41% | percentage increase of pain threshold ([3]; without yeast, 32 mg/kg orally): 0% | percentage increase of pain threshold ([3]; without yeast, 64 mg/kg orally): 2% | percentage increase of pain threshold ([3]; without yeast, 128 mg/kg orally): 11% | percentage increase of pain threshold ([3]; without yeast, 256 mg/kg orally): 0% | inhibition in vivo at 64 mg/kg ([4]; 64 mg/kg orally): 31% | inhibition in vivo at 128 mg/kg ([4]; 128 mg/kg orally): 49% | inhibition in vivo at 256 mg/kg ([4]; 256 mg/kg orally): 75%
